Data as given in patent publication US20160220569A1, “CDK4/6 Inhibitor Dosage Formulations For The Protection Of Hematopoietic Stem And Progenitor Cells During Chemotherapy” (G1 Therapeutics, Inc., priority 2015, published 2016).
Several values for one entry are separate records, joined by “and”; a condition that tells them apart may be missing. Equal values may be shown once.

Assay: 14-day oral gavage toxicokinetic study in rats
Format: in vivo
Conditions: for Compound 1 Plasma Concentration: daily oral 2 mg/kg (Group 7), individual animals
Method: Plasma was obtained from blood samples collected from rats in a composite sampling scheme, with 3 samples collected per sex, per dose, at each target collection time, as illustrated in Table 21 to Table 25. Samples were collected from the vehicle control group on Day 1 and Day 14 at 3 hour after administration. […] Blood samples were collected in tubes containing K3EDTA as an anticoagulant and placed on ice until processed to plasma via centrifugation. Samples were stored frozen at −80° C. until shipment to the bioanalytical laboratory for analysis.
The following parameters were determined:
Cmax: Maximum observed plasma concentration (ng/mL).
A value of 0 ng/mL was assigned to all values below the lower limit of quantitation (BLQ, <10.0 ng/mL).
AUC(0-inf): Area under the plasma concentration vs. time curve extrapolated from 0 to infinity (ng*h/mL), calculated as AUC(0-t)+AUC(t-inf) where AUC(t-inf) is calculated as last measurable concentration (CLast) divided by ke, where ke is the elimination rate constant determined by linear regression of the last three analytically measured points on the log plasma concentration vs. time curve. The selection criteria of the data points for inclusion in the calculation of ke required that at least three data points representing the terminal phase (after Tmax) were regressed and that R2≧0.850 when rounded.
CL: Clearance (L/h/kg), calculated as the dose divided by AUC(0-t).
Vd: Volume of distribution (L/kg), calculated as dose divided by the product of ke and AUC(0-inf).
Vdss: Steady state volume of distribution (L/kg), calculated as clearance […] mean residence time, where mean residence time is calculated as the area under the first moment curve divided by AUC(0-t).
t½: Elimination half-life (h), calculated as ln(2)/ke, where ke is the elimination rate constant determined by linear regression. Half-life was defined as not determined if regression criteria (specified in AUC(0-inf) above) were not met.
Cmax/Dose: Normalized Cmax, calculated as Cmax divided by total dose.
AUC/Dose: Normalized AUC, calculated as AUC(0-t) divided by total dose.
ii. Statistical Analysis Mean and standard deviation (SD) were calculated in Watson. Values of BLQ were assigned a value of 0 ng/mL for mean calculations. Concentration values and derived TK parameters were reported to three significant figures.

[1] = male, rat, plasma, po, 30 mg/kg, oral 30 mg/kg, Study Day 14, Male

CN1CCN(c2ccc(Nc3ncc4cc5n(c4n3)C3(CCCCC3)CNC5=O)nc2)CC1 [Compound 1, 2′-((5-(4-methylpiperazin-1-yl)pyridin-2-yl)amino)-7′,8′-dihydro-6′H-spiro[cyclohexane-1,9′-pyrazino[1′,2′:1,5]pyrrolo[2,3-d]pyrimidin]-6′-one]
AUC(0-t) [1]: 29300 ng·h/mL | Cmax [1]: 2030 ng/mL | Tmax [1]: 4 h | half-life (male, rat, plasma, po, 30 mg/kg, oral 30 mg/kg, Study Day 14, Male, read-out: t½ (converted)): 4.88 h | Compound 1 Plasma Concentration (rats, Female, Day 1, 0.5 h, 2 mg/kg): 69.7 ng/mL and 120 ng/mL | Compound 1 Plasma Concentration (rats, Female, Day 1, 1 h, 2 mg/kg): 53.3 ng/mL and 115 ng/mL and 106 ng/mL | Compound 1 Plasma Concentration (rats, Female, Day 1, 2 h, 2 mg/kg): 185 ng/mL and 187 ng/mL | Compound 1 Plasma Concentration (rats, Female, Day 1, 4 h, 2 mg/kg): 90.2 ng/mL and 201 ng/mL and 234 ng/mL | Compound 1 Plasma Concentration (rats, Female, Day 1, 8 h, 2 mg/kg): 70.0 ng/mL and 69.2 ng/mL and 151 ng/mL | Compound 1 Plasma Concentration (rats, Female, Day 1, 12 h, 2 mg/kg): 100 ng/mL and 54.7 ng/mL | Compound 1 Plasma Concentration (rats, Female, Day 1, 24 h, 2 mg/kg): BLQ (Below the lower limit of quantitation (<10.0 ng/mL)) and 28.8 ng/mL and 10.2 ng/mL | Compound 1 Plasma Concentration (rats, Female, Day 1, […]): BLQ (Below the lower limit of quantitation (<10.0 ng/mL)) | Compound 1 Plasma Concentration (rats, Female, Day 14, 0.5 h, 2 mg/kg): 108 ng/mL | Compound 1 Plasma Concentration (rats, Female, Day 14, 1 h, 2 mg/kg): 113 ng/mL | Compound 1 Plasma Concentration (rats, Female, Day 14, 2 h, 2 mg/kg): 200 ng/mL | Compound 1 Plasma Concentration (rats, Female, Day 14, 4 h, 2 mg/kg): 119 ng/mL | Compound 1 Plasma Concentration (rats, Female, Day 14, 8 h, 2 mg/kg): 54.0 ng/mL | Compound 1 Plasma Concentration (rats, Female, Day 14, 12 h, 2 mg/kg): 65.4 ng/mL and 32.0 ng/mL | Compound 1 Plasma Concentration (rats, Female, Day 14, 24 h, 2 mg/kg): BLQ (Below the lower limit of quantitation (<10.0 ng/mL)) | Compound 1 Plasma Concentration (rats, Female, Day 14, Predose): BLQ (Below the lower limit of quantitation (<10.0 ng/mL)) | Compound 1 Plasma Concentration (rats, Female, Day 14, […], 2 mg/kg): BLQ (Below the lower limit of quantitation (<10.0 ng/mL)) | Compound 1 Plasma Concentration (rats, Male, Day 1, 0.5 h, 2 mg/kg): 64.1 ng/mL and 74.1 ng/mL and 35.0 ng/mL | Compound 1 Plasma Concentration (rats, Male, Day 1, 1 h, 2 mg/kg): 47.1 ng/mL and 65.2 ng/mL | Compound 1 Plasma Concentration (rats, Male, Day 1, 2 h, 2 mg/kg): 113 ng/mL and 95.5 ng/mL | Compound 1 Plasma Concentration (rats, Male, Day 1, 4 h, 2 mg/kg): 107 ng/mL and 148 ng/mL | Compound 1 Plasma Concentration (rats, Male, Day 1, 8 h, 2 mg/kg): 108 ng/mL and 64.1 ng/mL | Compound 1 Plasma Concentration (rats, Male, Day 1, 12 h, 2 mg/kg): 61.3 ng/mL and 47.8 ng/mL | Compound 1 Plasma Concentration (rats, Male, Day 1, 24 h): BLQ (Below the lower limit of quantitation (<10.0 ng/mL)) | Compound 1 Plasma Concentration (rats, Male, Day 1, […]): BLQ (Below the lower limit of quantitation (<10.0 ng/mL)) | Compound 1 Plasma Concentration (rats, Male, Day 14, 0.5 h, 2 mg/kg): 49.0 ng/mL and 55.7 ng/mL | Compound 1 Plasma Concentration (rats, Male, Day 14, 1 h, 2 mg/kg): 34.9 ng/mL and 61.2 ng/mL | Compound 1 Plasma Concentration (rats, Male, Day 14, 2 h, 2 mg/kg): 109 ng/mL and 91.3 ng/mL | Compound 1 Plasma Concentration (rats, Male, Day 14, 4 h, 2 mg/kg): 119 ng/mL and 112 ng/mL | Compound 1 Plasma Concentration (rats, Male, Day 14, 8 h, 2 mg/kg): 112 ng/mL and 102 ng/mL | Compound 1 Plasma Concentration (rats, Male, Day 14, 12 h, 2 mg/kg): 50.8 ng/mL and 45.6 ng/mL | Compound 1 Plasma Concentration (rats, Male, Day 14, 24 h): BLQ (Below the lower limit of quantitation (<10.0 ng/mL)) | Compound 1 Plasma Concentration (rats, Male, Day 14, Predose): BLQ (Below the lower limit of quantitation (<10.0 ng/mL)) | Compound 1 Plasma Concentration (rats, Male, Day 14, […]): BLQ (Below the lower limit of quantitation (<10.0 ng/mL)) | Mean Compound 1 Plasma Concentration (rats, oral 2 mg/kg, Day 1, 24 h, Male, BLQ = <10.0 ng/mL): BLQ | Mean Compound 1 Plasma Concentration (rats, oral 2 mg/kg, Day 1, […], Female, BLQ = <10.0 ng/mL): BLQ | Mean Compound 1 Plasma Concentration (rats, oral 2 mg/kg, Day 1, […], Male, BLQ = <10.0 ng/mL): BLQ | Mean Compound 1 Plasma Concentration (rats, oral 2 mg/kg, Day 1, […], Overall, BLQ = <10.0 ng/mL): BLQ | Mean Compound 1 Plasma Concentration (rats, oral 2 mg/kg, Day 14, 24 h, Male, BLQ = <10.0 ng/mL): BLQ | Mean Compound 1 Plasma Concentration (rats, oral 2 mg/kg, Day 14, Pre-dose, Female, BLQ = <10.0 ng/mL): BLQ | Mean Compound 1 Plasma Concentration (rats, oral 2 mg/kg, Day 14, Pre-dose, Male, BLQ = <10.0 ng/mL): BLQ | Mean Compound 1 Plasma Concentration (rats, oral 2 mg/kg, Day 14, Pre-dose, Overall, BLQ = <10.0 ng/mL): BLQ | Mean Compound 1 Plasma Concentration (rats, oral 2 mg/kg, Day 14, […], Male, BLQ = <10.0 ng/mL): BLQ | Mean Compound 1 Plasma Concentration (rats, oral 5 mg/kg, Day 14, Pre-dose, Male): 20.0 ng/mL | Mean Compound 1 Plasma Concentration (rats, oral 5 mg/kg, Day 14, Pre-dose, Overall): 18.6 ng/mL | Mean Compound 1 Plasma Concentration (rats, oral 15 mg/kg, Day 14, Pre-dose, Female): 120 ng/mL | Mean Compound 1 Plasma Concentration (rats, oral 15 mg/kg, Day 14, Pre-dose, Male): 78.0 ng/mL | Mean Compound 1 Plasma Concentration (rats, oral 15 mg/kg, Day 14, Pre-dose, Overall): 99.2 ng/mL | Mean Compound 1 Plasma Concentration (rats, oral 30 mg/kg, Day 14, Pre-dose, Female): 336 ng/mL | Mean Compound 1 Plasma Concentration (rats, oral 30 mg/kg, Day 14, Pre-dose, Overall): 254 ng/mL | systemic exposure with increasing dose level (rats, oral, Days 1 and 14): increased roughly proportionally
